Assay: xn = mol fraction of the nth substance listed
Conditions: Liquid, Vibrating tube method

CCCCCCCCCC [decane] + CCCCCCCC
Conditions	mass density [kg/m3]
323.15 K, 13000 kPa, x2 = 0.7736	698.56
323.15 K, 13000 kPa, x2 = 0.9623	692.26
323.15 K, 14000 kPa, x2 = 0.5314	706.56
323.15 K, 14000 kPa, x2 = 0.7736	699.43
323.15 K, 14000 kPa, x2 = 0.9623	693.16
323.15 K, 15000 kPa, x2 = 0.5314	707.39
323.15 K, 15000 kPa, x2 = 0.7736	700.3
323.15 K, 15000 kPa, x2 = 0.9623	694.06
323.15 K, 16000 kPa, x2 = 0.5314	708.22
323.15 K, 16000 kPa, x2 = 0.7736	701.16
323.15 K, 16000 kPa, x2 = 0.9623	694.94
323.15 K, 17000 kPa, x2 = 0.5314	709.02
323.15 K, 17000 kPa, x2 = 0.7736	702
323.15 K, 17000 kPa, x2 = 0.9623	695.8
323.15 K, 18000 kPa, x2 = 0.5314	709.85
323.15 K, 18000 kPa, x2 = 0.7736	702.81
323.15 K, 18000 kPa, x2 = 0.9623	696.65
323.15 K, 19000 kPa, x2 = 0.5314	710.62
323.15 K, 19000 kPa, x2 = 0.7736	703.6
323.15 K, 19000 kPa, x2 = 0.9623	697.48
323.15 K, 20000 kPa, x2 = 0.5314	711.38
323.15 K, 20000 kPa, x2 = 0.7736	704.4
323.15 K, 20000 kPa, x2 = 0.9623	698.3
323.15 K, 21000 kPa, x2 = 0.5314	712.12
323.15 K, 21000 kPa, x2 = 0.7736	705.18
323.15 K, 21000 kPa, x2 = 0.9623	699.1
323.15 K, 22000 kPa, x2 = 0.5314	712.85
323.15 K, 22000 kPa, x2 = 0.7736	705.95
323.15 K, 22000 kPa, x2 = 0.9623	699.83
323.15 K, 23000 kPa, x2 = 0.5314	713.54
323.15 K, 23000 kPa, x2 = 0.7736	706.68
323.15 K, 23000 kPa, x2 = 0.9623	700.57
323.15 K, 24000 kPa, x2 = 0.5314	714.24
323.15 K, 24000 kPa, x2 = 0.7736	707.39
323.15 K, 24000 kPa, x2 = 0.9623	701.31
323.15 K, 25000 kPa, x2 = 0.5314	714.88
323.15 K, 25000 kPa, x2 = 0.7736	708.08
323.15 K, 25000 kPa, x2 = 0.9623	702
323.19 K, 1000 kPa, x2 = 0.0616	706.61
323.19 K, 2000 kPa, x2 = 0.0616	707.46
323.19 K, 3000 kPa, x2 = 0.0616	708.43
323.19 K, 4000 kPa, x2 = 0.0616	709.27
323.19 K, 5000 kPa, x2 = 0.0616	710.19
323.19 K, 6000 kPa, x2 = 0.0616	711.06
323.19 K, 7000 kPa, x2 = 0.0616	711.94
323.19 K, 8000 kPa, x2 = 0.0616	712.81
323.19 K, 9000 kPa, x2 = 0.0616	713.68
323.19 K, 10000 kPa, x2 = 0.0616	714.53
323.19 K, 10990 kPa, x2 = 0.0616	715.36
323.19 K, 12000 kPa, x2 = 0.0616	716.18
323.19 K, 13000 kPa, x2 = 0.0616	716.99
323.19 K, 14000 kPa, x2 = 0.0616	717.79
323.19 K, 15000 kPa, x2 = 0.0616	718.57
323.19 K, 16000 kPa, x2 = 0.0616	719.34
323.19 K, 17000 kPa, x2 = 0.0616	720.12
323.19 K, 18000 kPa, x2 = 0.0616	720.9
323.19 K, 19000 kPa, x2 = 0.0616	721.64
323.19 K, 20000 kPa, x2 = 0.0616	722.37
323.19 K, 21000 kPa, x2 = 0.0616	723.09
323.19 K, 22000 kPa, x2 = 0.0616	723.78
323.19 K, 23000 kPa, x2 = 0.0616	724.44
323.19 K, 24000 kPa, x2 = 0.0616	725.08
323.19 K, 25000 kPa, x2 = 0.0616	725.73
333.12 K, 1000 kPa, x2 = 0.0616	698.91
333.12 K, 1000 kPa, x2 = 0.2801	693.73
333.12 K, 2000 kPa, x2 = 0.0616	699.91
333.12 K, 2000 kPa, x2 = 0.2801	694.68
333.12 K, 3000 kPa, x2 = 0.0616	700.87
333.12 K, 3000 kPa, x2 = 0.2801	695.65
333.12 K, 4000 kPa, x2 = 0.0616	701.83
333.12 K, 4000 kPa, x2 = 0.2801	696.63
333.12 K, 5000 kPa, x2 = 0.0616	702.77
333.12 K, 5000 kPa, x2 = 0.2801	697.61
333.12 K, 6000 kPa, x2 = 0.0616	703.69
333.12 K, 6000 kPa, x2 = 0.2801	698.55
333.12 K, 7000 kPa, x2 = 0.0616	704.67
333.12 K, 7000 kPa, x2 = 0.2801	699.5
333.12 K, 8000 kPa, x2 = 0.0616	705.56
333.12 K, 8000 kPa, x2 = 0.2801	700.43
333.12 K, 9000 kPa, x2 = 0.0616	706.45
333.12 K, 9000 kPa, x2 = 0.2801	701.36
333.12 K, 10000 kPa, x2 = 0.0616	707.38
333.12 K, 10000 kPa, x2 = 0.2801	702.27
333.12 K, 10990 kPa, x2 = 0.0616	708.26
333.12 K, 10990 kPa, x2 = 0.2801	703.19
333.12 K, 12000 kPa, x2 = 0.0616	709.09
333.12 K, 12000 kPa, x2 = 0.2801	704.1
333.12 K, 13000 kPa, x2 = 0.0616	709.96
333.12 K, 13000 kPa, x2 = 0.2801	704.98
333.12 K, 14000 kPa, x2 = 0.0616	710.8
333.12 K, 14000 kPa, x2 = 0.2801	705.81
333.12 K, 15000 kPa, x2 = 0.0616	711.63
333.12 K, 15000 kPa, x2 = 0.2801	706.72
333.12 K, 16000 kPa, x2 = 0.0616	712.43
